Experimental data: PMC6649263 (ACS Omega, 2019)

Assays:
Type in all cases: biochemical
horse serum BChE = horse serum BChE (Equus caballus, UniProt P81908); test: Cholinesterase enzyme inhibition assay
hGSK-3β = hGSK-3β (Homo sapiens, UniProt P49841); test: GSK-3β Kinase-Glo enzyme inhibition assay, with enzyme kinetics
[1] = target: human recombinant β-secretase (BACE1) (Homo sapiens, UniProt P56817); test: BACE1 FRET enzyme inhibition assay, with enzyme kinetics; details: IC50 BACE1, mean ± SD, triplicate
Sequence of human recombinant β-secretase (BACE1) (P56817 46-501): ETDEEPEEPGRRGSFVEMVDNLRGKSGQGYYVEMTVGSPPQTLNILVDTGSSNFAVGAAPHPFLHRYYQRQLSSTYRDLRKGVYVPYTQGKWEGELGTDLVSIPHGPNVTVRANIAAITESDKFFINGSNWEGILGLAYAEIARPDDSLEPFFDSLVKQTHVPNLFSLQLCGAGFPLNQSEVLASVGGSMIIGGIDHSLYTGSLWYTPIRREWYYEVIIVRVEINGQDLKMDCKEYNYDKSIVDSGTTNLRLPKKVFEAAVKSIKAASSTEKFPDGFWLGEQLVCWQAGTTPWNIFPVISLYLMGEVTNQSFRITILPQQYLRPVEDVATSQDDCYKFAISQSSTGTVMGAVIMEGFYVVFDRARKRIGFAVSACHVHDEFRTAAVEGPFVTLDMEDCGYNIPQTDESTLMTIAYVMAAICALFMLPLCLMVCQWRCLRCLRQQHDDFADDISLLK

electric eel AChE = electric eel AChE (Electrophorus electricus, UniProt O42275); test: Cholinesterase enzyme inhibition assay
Sequence of electric eel AChE (O42275 24-633): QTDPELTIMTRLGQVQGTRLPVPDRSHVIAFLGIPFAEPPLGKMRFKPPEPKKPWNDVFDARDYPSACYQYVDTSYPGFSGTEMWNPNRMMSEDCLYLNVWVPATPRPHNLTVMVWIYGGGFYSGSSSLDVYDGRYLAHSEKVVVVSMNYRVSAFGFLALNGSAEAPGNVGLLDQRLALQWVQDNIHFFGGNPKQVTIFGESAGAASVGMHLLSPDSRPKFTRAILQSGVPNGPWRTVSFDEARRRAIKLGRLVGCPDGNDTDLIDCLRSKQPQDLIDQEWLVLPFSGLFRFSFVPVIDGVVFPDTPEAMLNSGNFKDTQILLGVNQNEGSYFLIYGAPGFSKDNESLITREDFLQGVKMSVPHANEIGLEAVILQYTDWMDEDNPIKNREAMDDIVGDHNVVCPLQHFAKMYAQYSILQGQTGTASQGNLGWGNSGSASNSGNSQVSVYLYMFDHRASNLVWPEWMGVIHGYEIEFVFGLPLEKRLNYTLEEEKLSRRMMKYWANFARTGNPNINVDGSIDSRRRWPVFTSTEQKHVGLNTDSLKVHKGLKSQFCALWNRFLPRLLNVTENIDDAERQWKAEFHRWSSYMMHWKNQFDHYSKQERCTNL

Sequence of hGSK-3β (P49841 whole entry): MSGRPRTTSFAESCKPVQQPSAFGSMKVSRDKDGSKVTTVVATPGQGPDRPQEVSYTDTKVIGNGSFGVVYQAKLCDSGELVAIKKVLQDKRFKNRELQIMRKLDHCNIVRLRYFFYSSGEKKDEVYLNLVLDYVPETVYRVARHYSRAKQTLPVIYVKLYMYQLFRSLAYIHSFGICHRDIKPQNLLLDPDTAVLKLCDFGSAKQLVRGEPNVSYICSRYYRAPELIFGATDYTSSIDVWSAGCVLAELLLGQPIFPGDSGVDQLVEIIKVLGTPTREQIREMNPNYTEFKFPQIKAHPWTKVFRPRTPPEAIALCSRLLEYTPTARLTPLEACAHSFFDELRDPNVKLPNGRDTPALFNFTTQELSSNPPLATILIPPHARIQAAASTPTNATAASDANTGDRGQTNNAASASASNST
Sequence of horse serum BChE (P81908 whole entry): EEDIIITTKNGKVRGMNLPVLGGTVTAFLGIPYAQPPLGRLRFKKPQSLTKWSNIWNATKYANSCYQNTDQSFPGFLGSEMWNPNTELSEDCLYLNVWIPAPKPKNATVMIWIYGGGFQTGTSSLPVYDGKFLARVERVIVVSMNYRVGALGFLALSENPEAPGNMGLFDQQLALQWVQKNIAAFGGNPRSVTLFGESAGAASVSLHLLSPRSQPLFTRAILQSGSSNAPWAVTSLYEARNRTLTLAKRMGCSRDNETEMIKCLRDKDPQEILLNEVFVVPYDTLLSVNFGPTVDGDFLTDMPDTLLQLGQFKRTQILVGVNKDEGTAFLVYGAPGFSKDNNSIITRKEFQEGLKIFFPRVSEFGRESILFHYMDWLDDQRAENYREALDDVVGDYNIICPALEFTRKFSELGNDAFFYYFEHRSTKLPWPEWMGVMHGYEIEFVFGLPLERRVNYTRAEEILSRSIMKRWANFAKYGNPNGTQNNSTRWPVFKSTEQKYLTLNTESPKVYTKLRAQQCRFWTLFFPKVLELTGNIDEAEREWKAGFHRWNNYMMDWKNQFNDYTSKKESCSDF

Compound	IC50 (horse serum BChE) [µM]	IC50 (hGSK-3β) [µM]	IC50 [1] [µM]	IC50 (electric eel AChE) [µM]
C[C@@]12C=C(c3c(O)cc(-c4cc5ccc(O)cc5o4)cc3O)C[C@@H](C1)c1ccc(O)cc1O2 [mulberrofuran H (3), mulberrofuran H]	64.5 ± 3.1	4.41 ± 0.3	1.04 ± 0.78	> 200
CC(C)=CCC/C(C)=C/Cc1c(O)ccc2cc(-c3cc(O)cc(O)c3CC=C(C)C)oc12 [mulberrofuran D (1), mulberrofuran D]	6.12 ± 1.41	8.12 ± 0.66		23 ± 1.15
